# According to patent US20240228482A1, “COMPOUNDS, COMPOSITIONS AND METHODS OF TREATING CANCER” (HOTSPOT THERAPEUTICS, INC., priority 2021, published 2024):
# Molecular target: T1, CBL-B (Homo sapiens, UniProt Q13191)
# T1 construct: GST
# Assay: CBL-B TR-FRET IC50 screening (E1/E2 ubiquitination, Biotin-Ubiquitin, Anti GST-Tb donor / Streptavidin-d2 acceptor)
# Type: biochemical
# Settings: CBL-B 10 nM final; 11-point titration from 100 uM; binned A-F; read-out: CBL-B TR-FRET activity IC50
# T1 sequence (Q13191 whole entry): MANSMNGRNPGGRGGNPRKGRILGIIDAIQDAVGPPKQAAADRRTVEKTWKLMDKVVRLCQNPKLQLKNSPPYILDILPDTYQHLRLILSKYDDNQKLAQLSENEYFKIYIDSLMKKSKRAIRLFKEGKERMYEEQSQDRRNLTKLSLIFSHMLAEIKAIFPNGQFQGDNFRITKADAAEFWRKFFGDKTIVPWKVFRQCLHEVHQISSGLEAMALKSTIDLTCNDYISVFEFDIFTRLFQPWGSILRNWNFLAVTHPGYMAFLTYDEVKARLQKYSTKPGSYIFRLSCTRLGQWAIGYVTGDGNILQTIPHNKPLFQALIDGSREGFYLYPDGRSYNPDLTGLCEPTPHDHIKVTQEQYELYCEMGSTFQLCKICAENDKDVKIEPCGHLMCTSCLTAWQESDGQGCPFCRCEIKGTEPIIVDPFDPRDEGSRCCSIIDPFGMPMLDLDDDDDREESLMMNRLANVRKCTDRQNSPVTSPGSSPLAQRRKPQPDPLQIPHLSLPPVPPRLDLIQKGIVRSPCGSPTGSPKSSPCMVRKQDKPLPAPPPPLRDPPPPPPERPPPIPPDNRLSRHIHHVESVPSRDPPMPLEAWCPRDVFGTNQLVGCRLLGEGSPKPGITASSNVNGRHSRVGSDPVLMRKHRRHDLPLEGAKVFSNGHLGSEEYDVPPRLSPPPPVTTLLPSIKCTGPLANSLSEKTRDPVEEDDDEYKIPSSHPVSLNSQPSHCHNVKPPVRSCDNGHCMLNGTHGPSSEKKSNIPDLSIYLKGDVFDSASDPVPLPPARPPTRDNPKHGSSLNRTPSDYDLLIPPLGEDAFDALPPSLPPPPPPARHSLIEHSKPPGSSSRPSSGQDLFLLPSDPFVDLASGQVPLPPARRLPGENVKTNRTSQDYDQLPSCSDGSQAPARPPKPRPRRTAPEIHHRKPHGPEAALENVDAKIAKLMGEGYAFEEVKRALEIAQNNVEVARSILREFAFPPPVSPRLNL
row,IC50,Structure (SMILES)
1,3000 to 10000 nM,Cn1cnnc1[C@H](c1cccc(-n2cc3c(C(F)(F)F)cc(CN4CC[C@H](F)C4)cn3c2=O)c1)C1CCC1 [Compound 158]
2,< 100 nM,Cn1cnnc1CC1(c2cccc(-n3cc4c(C(F)(F)F)cc(CNCC5CCCO5)cn4c3=O)c2)COC1 (stereo not shown) [Compound 253]
3,< 100 nM,C[C@H](c1cc(C(F)(F)F)c2cn(-c3cccc(C4(Cc5nncn5C)COC4)c3)c(=O)n2c1)N1CCC(F)CC1 [Compound 34]
4,< 100 nM,Cn1cnnc1[C@@H](c1cccc(-n2cc3c(C(F)(F)F)cc(CN4CC(F)(F)C4)cn3c2=O)c1)C1CCC1 [Compound 299]
5,> 10000 nM,"Cc1sc(C#N)nc1[C@H](c1cccc(-n2cc3c(C(F)(F)F)cc(CN4CCC[C@H](C)C4)cn3c2=O)c1)C1CCC1 (single isomer, unassigned) [Compound 371]"
6,< 100 nM,"C[C@H]1CN(Cc2cc(C(F)(F)F)c3cn(-c4cccc([C@]5(Cc6nncn6C)C[C@H](C#N)C5)c4)c(=O)n3c2)CCC1(F)F (single isomer, unassigned) [Compound 205]"
7,3000 to 10000 nM,Cc1cn(C)nc1CC1(c2cccc(-n3cc4c(C(F)(F)F)cc(CN5CCC[C@H](C)C5)cn4c3=O)c2)COC1 [Compound 197]
8,< 100 nM,COC1CN(Cc2cc(C(F)(F)F)c3cn(-c4cccc([C@H](c5nncn5C)C5CCC5)c4)c(=O)n3c2)C1 [Compound 312]
9,100 to 300 nM,Cn1cnnc1CC1(c2cccc(-n3cc4c(C(F)(F)F)cc(C5(O)CCNCC5)cn4c3=O)c2)COC1 [Compound 179]
10,1000 to 3000 nM,Cn1cnnc1C(c1cccc(-n2cc3c(C(F)(F)F)cccn3c2=O)c1)C1COC1 (stereo not shown) [Compound 141]
11,< 100 nM,Cn1cnnc1[C@@H](c1cccc(-n2cc3c(C(F)(F)F)cc(CN4CCc5scnc5C4)cn3c2=O)c1)C1CCC1 [Compound 315]
12,100 to 300 nM,COCCN(c1cccc(-n2cc3c(C(F)(F)F)cc(CN4CCC[C@H](C)C4)cn3c2=O)c1)c1nncn1C [Compound 375]
13,1000 to 3000 nM,CNS(=O)(=O)c1cc(C(F)(F)F)c2cn(-c3cccc(C4(Cc5nncn5C)COC4)c3)c(=O)n2c1 [Compound 175]
14,< 100 nM,"CC(c1cc(C(F)(F)F)c2cn(-c3cccc(C4(Cc5nncn5C)COC4)c3)c(=O)n2c1)N1CCC[C@H](C)C1 (single isomer, unassigned) [Compound 120]"
15,< 100 nM,"Cn1cnnc1[C@]1(c2cccc(-n3cc4c(C(F)(F)F)cc(CN5CCC(C)(F)CC5)cn4c3=O)c2)C[C@@H](C)C1 (single isomer, unassigned) [Compound 217]"
16,> 10000 nM,CN1CC(Cc2nncn2C)(c2cccc(-n3cc4c(C(F)(F)F)cccn4c3=O)c2)C1 [Compound 188]
17,< 100 nM,"CC1CN(Cc2cc(C(F)(F)F)c3cn(-c4cccc([C@]5(Cc6nncn6C)C[C@@H](C#N)C5)c4)c(=O)n3c2)CCC1(F)F (single isomer, unassigned) [Compound 100]"

row,IC50,Structure (SMILES)
1,100 to 300 nM,Cn1cnnc1CC1(c2cccc(-n3cc4c(C(F)(F)F)cc(C#CCN5CCCC5)cn4c3=O)c2)COC1 [Compound 89]
2,1000 to 3000 nM,Cn1cnnc1CC1(c2cc(C#N)cc(-n3cc4c(C(F)(F)F)cc(Br)cn4c3=O)c2)COC1 [Compound 254]
3,< 100 nM,"C[C@@H]1CN(Cc2cc(C(F)(F)F)c3cn(-c4cccc([C@]5(Cc6nncn6C)C[C@H](C#N)C5)c4)c(=O)n3c2)CCC1(F)F (single isomer, unassigned) [Compound 204]"
4,< 100 nM,CO[C@H]1C[C@@](c2cccc(-n3cc4c(C(F)(F)F)cc(CN5CCC[C@H](C)C5)cn4c3=O)c2)(c2nncn2C)C1 [Compound 318]
5,> 10000 nM,"C[C@H]1CCCN(Cc2cc(C(F)(F)F)c3cn(-c4cccc([C@@H](c5nncn5C)[C@H]5C[C@H](CO)C5)c4)c(=O)n3c2)C1 (single isomer, unassigned) [Compound 355]"
6,< 100 nM,Cn1cnnc1[C@H](c1cccc(-n2cc3c(C(F)(F)F)cc(CN4CCN(C=O)CC4)cn3c2=O)c1)C1CCC1 [Compound 340_P1]
7,< 100 nM,CO[C@@H]1CCN(Cc2cc(C(F)(F)F)c3cn(-c4cccc([C@H](c5nncn5C)C5CCC5)c4)c(=O)n3c2)C1 [Compound 249]
8,1000 to 3000 nM,"Cn1cnnc1[C@H](c1cccc(-n2cc3c(C(F)(F)F)cc(CN4CCC5(CC5)C4)cn3c2=O)c1)C1CCC1 (single isomer, unassigned) [Compound 162]"
9,> 10000 nM,CC(=O)N1CC(Cc2nncn2C)(c2cccc(-n3cc4c(C(F)(F)F)cccn4c3=O)c2)C1 [Compound 143]
10,301 to 1000 nM,CN1C2CCC1CN(c1cc(C(F)(F)F)c3cn(-c4cccc([C@H](c5nncn5C)C5CCC5)c4)c(=O)n3c1)C2 [Compound 374]
11,< 100 nM,CC(=O)N1CCN(Cc2cc(C(F)(F)F)c3cn(-c4cccc([C@@H](c5nncn5C)C5CCC5)c4)c(=O)n3c2)CC1 [Compound 339_P1]
12,< 100 nM,Cc1c[nH]nc1[C@@H](c1cccc(-n2cc3c(C(F)(F)F)cc(CN4CCC[C@H](C)C4)cn3c2=O)c1)C1CCC1 [Compound 219]
13,< 100 nM,"C[C@H]1CCCN(Cc2cc(C(F)(F)F)c3cn(-c4cccc([C@H](c5nncn5C)[C@H]5C[C@@H](CO)C5)c4)c(=O)n3c2)C1 (single isomer, unassigned) [Compound 356]"
14,< 100 nM,Cn1cnnc1[C@@H](c1cccc(-n2cc3c(C(F)(F)F)cc(CN4CCn5ncnc5C4)cn3c2=O)c1)C1CCC1 [Compound 317]
15,< 100 nM,Cn1cnnc1[C@@H](c1cccc(-n2cc3c(C(F)(F)F)cc(CN4CC(Oc5ccc(Cl)cc5)C4)cn3c2=O)c1)C1CCC1 [Compound 338]
16,301 to 1000 nM,C[C@H](Cc1nncn1C)c1cccc(-n2cc3c(C(F)(F)F)cccn3c2=O)c1 [Compound 2]
17,> 10000 nM,"C[C@H]1CCCN(Cc2cc(C(F)(F)F)c3cn(-c4cccc([C@@H](c5nncn5C)C5CC(F)(F)C5)c4)c(=O)n3c2)C1 (single isomer, unassigned) [Compound 342]"

# Same assay, conditions: second part of Table 2 (head 'Patent Cmpd No / Updated Activity'); same CBL-B TR-FRET IC50 bins A-F; read-out: Updated Activity
row,Structure (SMILES),IC50
1,COC(=O)N1CCC(c2cc(C(F)(F)F)c3cn(-c4cccc([C@H](c5nncn5C)C5CCC5)c4)c(=O)n3c2)CC1 [Compound 395],100 to 300 nM
2,COC1CCN(Cc2cc(C(F)(F)F)c3cn(-c4cccc([C@H](c5nncn5C)C5COC5)c4)c(=O)n3c2)CC1 [Compound 415],< 100 nM

# Second part, the compound after the results:
row,IC50,Structure (SMILES)
1,< 100 nM,"C[C@H]1CN(Cc2cc(C(F)(F)F)c3cn(-c4cccc(C5(c6nncn6C)CC6(CC6)C5)c4)c(=O)n3c2)CCC1(F)F (single isomer, unassigned) [Compound 465]"
2,< 100 nM,"Cn1cnnc1C1(c2cccc(-n3cc4c(C(F)(F)F)cc(CN5CCC[C@@H](C(F)(F)F)C5)cn4c3=O)c2)CC2(CC2)C1 (single isomer, unassigned) [Compound 481]"
3,100 to 300 nM,"CO[C@H]1C[C@](c2cccc(-n3cc4c(C(F)(F)F)cc([C@@H](C)N5CC[C@@H](F)C5)cn4c3=O)c2)(c2nncn2C)C1 (single isomer, unassigned) [Compound 617]"
4,< 100 nM,Cn1cnnc1[C@@H](c1cccc(-n2cc3c(C(F)(F)F)cc(CN4CC(C#N)C4)cn3c2=O)c1)C1CCC1 [Compound 549]
5,< 100 nM,CN1CCCN(Cc2cc(C(F)(F)F)c3cn(-c4cccc([C@H](c5nncn5C)C5CCC5)c4)c(=O)n3c2)S1(=O)=O [Compound 562]
6,> 10000 nM,"C[C@H]1CCCN(Cc2cc(C(F)(F)F)c3cn(-c4cccc([C@H](c5nc(CO)cn5C)C5CCC5)c4)c(=O)n3c2)C1 (single isomer, unassigned) [Compound 585]"
7,100 to 300 nM,"CO[C@]1(C)C[C@](c2cccc(-n3cc4c(C(F)(F)F)cc(CN5CCC[C@H](C)C5)cn4c3=O)c2)(c2nncn2C)C1 (single isomer, unassigned) [Compound 439]"
8,< 100 nM,Cn1cnnc1[C@@H](c1cccc(-n2cc3c(C(F)(F)F)cc(CN4CCC5(CC4)COC5)cn3c2=O)c1)C1CCC1 [Compound 525]
9,< 100 nM,"CC(=O)N1CC[C@@H](c2cc(C(F)(F)F)c3cn(-c4cccc([C@H](c5nncn5C)C5CCC5)c4)c(=O)n3c2)C1 (single isomer, unassigned) [Compound 422]"
10,301 to 1000 nM,"CO[C@H]1C[C@@](c2cccc(-n3cc4c(C(F)(F)F)cc([C@@H](C)N5CCC(F)CC5)cn4c3=O)c2)(c2nncn2C)C1 (single isomer, unassigned) [Compound 602]"
11,< 100 nM,"CO[C@H]1C[C@](c2cccc(-n3cc4c(C(F)(F)F)cc([C@H](C)N5CCC(F)CC5)cn4c3=O)c2)(c2nncn2C)C1 (single isomer, unassigned) [Compound 607]"
12,1000 to 3000 nM,CC(=O)N1CC([C@H](c2cccc(-n3cc4c(C(F)(F)F)cc(CN5CCC[C@H](C)C5)cn4c3=O)c2)c2nncn2C)C1 [Compound 434_P2]
13,< 100 nM,"Cn1cnnc1[C@H](c1cc(F)cc(-n2cc3c(C(F)(F)F)cc(CN4CCC5(CC5)C4)cn3c2=O)c1)C1CCC1 (single isomer, unassigned) [Compound 514]"
14,< 100 nM,CN(CC(=O)O)Cc1cc(C(F)(F)F)c2cn(-c3cccc([C@H](c4nncn4C)C4CCC4)c3)c(=O)n2c1 [Compound 522]
15,< 100 nM,"C[C@H]1CN(Cc2cc(C(F)(F)F)c3cn(-c4cccc([C@H](c5nncn5C)C5CCC5)c4)c(=O)n3c2)CC[C@H]1O (single isomer, unassigned) [Compound 571]"
16,< 100 nM,C[C@H]1CCCN(Cc2cc(C(F)(F)F)c3cn(-c4cc([C@@H](c5nncn5C)C5CCC5)ccn4)c(=O)n3c2)C1 [Compound 627_P1]
17,> 10000 nM,"C[C@H]1CCCN(Cc2cc(C(F)(F)F)c3cn(-c4cccc([C@@H](c5nncn5C)[C@H]5C[C@](C)(O)C5)c4)c(=O)n3c2)C1 (single isomer, unassigned) [Compound 576]"
18,> 10000 nM,"CCn1cnnc1[C@@H](c1cccc(-n2cc3c(C(F)(F)F)cc(CN4CCC[C@H](C)C4)cn3c2=O)c1)C1CCC1 (single isomer, unassigned) [Compound 423]"
19,< 100 nM,"C[C@H](c1cc(C(F)(F)F)c2cn(-c3cccc([C@H](c4nncn4C)C4CCC4)c3)c(=O)n2c1)N1CC[C@H](F)C1 (single isomer, unassigned) [Compound 485]"
